The target of this test is T1, (Homo sapiens, UniProt P03372).
T1 sequence (P03372 1-595): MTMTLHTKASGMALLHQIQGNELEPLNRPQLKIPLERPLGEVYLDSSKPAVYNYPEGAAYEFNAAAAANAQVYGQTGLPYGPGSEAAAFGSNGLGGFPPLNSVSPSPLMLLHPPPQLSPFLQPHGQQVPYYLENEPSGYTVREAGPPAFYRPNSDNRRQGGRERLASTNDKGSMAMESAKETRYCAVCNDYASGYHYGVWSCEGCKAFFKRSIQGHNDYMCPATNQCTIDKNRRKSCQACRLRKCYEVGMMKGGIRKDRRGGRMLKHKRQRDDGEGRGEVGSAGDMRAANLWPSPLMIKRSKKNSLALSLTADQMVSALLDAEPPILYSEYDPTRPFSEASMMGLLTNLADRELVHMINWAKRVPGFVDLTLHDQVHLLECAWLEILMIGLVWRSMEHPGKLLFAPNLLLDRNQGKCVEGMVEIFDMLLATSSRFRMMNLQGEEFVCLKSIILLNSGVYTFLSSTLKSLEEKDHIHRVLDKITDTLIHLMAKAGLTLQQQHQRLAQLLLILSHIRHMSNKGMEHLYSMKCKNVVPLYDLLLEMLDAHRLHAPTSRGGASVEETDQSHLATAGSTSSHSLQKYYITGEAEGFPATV
Kind of test: in vitro competitive binding assay (radio-ligand displacement), estradiol binding activity.

Setting [1] is: Table 1, unsubstituted reference monomers, displacement of radio-ligand from ERR-α, read-out: IC50.

The structures appear in SMILES notation. Where two headings read alike, the source gives them in different places.

As a reminder, the IC50 is the concentration at which inhibition is half-maximal.

Experimental: The (IC50) of a particular substance can be determined using conventional competition binding assays. In this type of assay, a single concentration of radioligand (such as an agonist) is used in every assay tube. The ligand is used at a low concentration, usually at or below its Kd value. The level of specific binding of the radioligand is then determined in the presence of a range of concentrations of other competing non-radioactive compounds (usually antagonists), in order to measure the potency with which they compete for the binding of the radioligand. Competition curves can also be computer-fitted to a logistic function as described under direct fit.
IC50 binding concentrations for the alpha in vitro estradiol receptors were tested. Four separate sets of tests were run using a standard competitive binding assay. Samples were dissolved in either ethanol or DMSO. The various compounds were then tested at up to seven different concentrations for each test compound. Each of those tests was run in triplicate. Tests were conducted by displacement of a radio-ligand. For each set of tests a 17P-estradiol control sample was run to ensure proper binding of the natural hormone under the test conditions. Specifically, the IC50 values described herein were determined from in-vitro experiments of the compound binding to ERR-α.

As to `CCC(CC)(c1ccc(O)cc1)c1ccc(O)cc1` [Reference ID 9, 4,4′-(pentane-3,3-diyl)diphenol], the 50% inhibitory concentration (IC50) under setting [1] is 0.0056 µM.
Turning to `CC(C)(c1ccc(O)cc1)c1ccc(C(C)(C)c2ccc(O)cc2)cc1` [Reference ID 7, 4,4′-(1,4-phenylenebis(propane-2,2-diyl))diphenol], the IC50 amounted to 3.92 µM.
As for `COC(=O)CCC(C)(c1ccc(O)cc1)c1ccc(O)cc1` [Reference ID 10, Methyl 4,4-bis(4-hydroxyphenyl)pentanoate], the IC50 under setting [1] is 18.7 µM.
For the compound `COc1cc(C(C)(C)c2ccc(O)c(OC)c2)ccc1O` [Example 1A, 4,4′-(propane-2,2-diyl)bis(2-methoxyphenol)], the IC50 (Table 2, substituted monomers, displacement of radio-ligand from ERR-α, read-out: IC50) is > 250 µM. Moreover, the estradiol binding activity entry (with the LBD cavity of ERR-α, in words) is “reduced or no detectable estradiol binding activity”.
For the compound `Cc1cc(C2(c3ccc(O)c(C)c3)CCCCC2)ccc1O` [Reference ID 2, 4,4′-(cyclohexane-1,1-diyl)bis(2-methylphenol)], under setting [1], the IC50 was 1.27 µM.

(Values after patent US20150338423A1, “METHODS FOR DETERMINING RELATIVE BINDING ENERGY OF MONOMERS AND METHODS OF USING THE SAME” (SABIC Global Technologies B.V., priority 2014, published 2015).)
